Among the data in PubChem BioAssay (NCI) are TGI and GI50 values, retold here.

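Five compound concentrations were applied to cells in 96-well plates for 48 hours; endpoints were derived by simple linear interpolation of the resulting dose-response curve. At the GI50, growth is halved. The concentration for full growth arrest is given as TGI.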

What all share (assay): DTP human tumour cell line panel, 48 h
For experiment [1], the system named is SF-268 CNS.
The test system of experiment [2] is NCI-H522 lung.
Experiment [3] relates to MCF7 breast.
Experiment [4] concerns ACHN renal.
Experiment [5] relates to HCT-15 colon.
Experiment [6] concerns M14 melanoma.
The subject of experiment [7] is NCI/ADR-RES ovarian.
Experiment [8] deals with HOP-62 NSCLC.

As a reminder, the TGI is the concentration giving total growth inhibition. As to `Cc1ccc2nc(CC(=O)c3ccc4ccccc4c3)c(=O)[nH]c2c1`, the TGI in experiment [1], in experiment [2], in experiment [3], in experiment [4], in experiment [5] and in experiment [6] was more than 100 µM in each case. Also, the TGI in experiment [7] and in experiment [8] was more than 100 µM in each case.

The term GI50 denotes the concentration that inhibits growth by half. Turning to `CCNC(=O)c1ccc2c(c1)nc(-c1ccc(Cl)cc1)n2-c1cc(C(C)(C)C)[nH]n1`, the GI50 was 3.42 µM in experiment [1]; 2.7 µM in experiment [2]; 2.68 µM in experiment [3]; 3.48 µM in experiment [4]; 3.26 µM in experiment [5]; 2.97 µM in experiment [6]. The GI50 is 2.54 µM in experiment [7] and 5.41 µM in experiment [8]. Further, the TGI was determined as 15.4 µM in experiment [1]; 9.6 µM in experiment [2]; 10.5 µM in experiment [3]; 13.2 µM in experiment [4]; 18 µM in experiment [5]; 10.8 µM in experiment [6]. Besides, the TGI came out at 9.33 µM in experiment [7] and 36.2 µM in experiment [8].

Turning to `C/C=C(\C)C(=O)OC1C2C(C)C(=O)OC2C(O)C(C)C2C=CC(=O)C21C` (stereo not drawn), the TGI in experiment [1] is 56.5 µM; in experiment [2] it was 12.5 µM; in experiment [3], 21.6 µM; in experiment [4], 26.8 µM; in experiment [5] it was 34.5 µM; in experiment [6], 31.3 µM. The TGI worked out at 49.9 µM in experiment [7] and 40.3 µM in experiment [8].

For `Cc1cc(O)c(O)c(Oc2cc(C)cc(O)c2O)c1`, the TGI in experiment [1] worked out at 95 µM; in experiment [2], 34.8 µM; in experiment [3] it was 29.3 µM; in experiment [4], 79.9 µM; in experiment [5] it was 29.9 µM; in experiment [6], 49.3 µM. The compound also returned a concentration for total growth inhibition (TGI) in experiment [8] of more than 100 µM.

With `COc1cc(CCNc2nc3cc(N)cc(N)c3nc2-c2ccccc2)cc(OC)c1`, the GI50 was 1.74 µM in experiment [1]; 1.71 µM in experiment [3]; 1.8 µM in experiment [4]; 2.43 µM in experiment [5]; 2 µM in experiment [6]; 2.61 µM in experiment [7]. In addition, in experiment [8], the GI50 was 2.95 µM. The TGI stood at 3.72 µM in experiment [1]; 3.89 µM in experiment [3]; 3.27 µM in experiment [4]; 7.42 µM in experiment [5]; 4.05 µM in experiment [6]; 6.3 µM in experiment [7]. Besides, the TGI in experiment [8] was 9.35 µM.

Turning to `Cc1cc2c(=O)c3ccccc3oc2c(C#N)c1C`, the TGI in experiment [1], in experiment [3], in experiment [4], in experiment [6], in experiment [7] and in experiment [8] was more than 100 µM throughout.

As to `CC(=O)Nc1ccc(S(=O)(=O)c2ccc(NC(C)=O)cc2)cc1`, the GI50 in experiment [2], in experiment [3], in experiment [4], in experiment [5], in experiment [6] and in experiment [7] was more than 100 µM each time. The GI50 in experiment [8] is more than 100 µM. The TGI in experiment [2], in experiment [3], in experiment [4], in experiment [5], in experiment [6] and in experiment [7] was more than 100 µM in each case. The compound also gave a TGI in experiment [8] of more than 100 µM.

With `CCCN(CCC)c1ccc(/C=N/NC(=O)c2cccnc2)cc1`, the GI50 was 31.2 µM in experiment [1]; 16.6 µM in experiment [2]; 20.2 µM in experiment [3]; 39.5 µM in experiment [4]; 19.8 µM in experiment [5]; 18 µM in experiment [7]. Besides, the GI50 in experiment [8] is 37.9 µM. Also, the TGI in experiment [1] is more than 100 µM; in experiment [2], 46.8 µM; in experiment [3], more than 100 µM; in experiment [4], more than 100 µM; in experiment [5], more than 100 µM; in experiment [7], more than 100 µM. The compound also registered a TGI in experiment [8] of more than 100 µM.

`[O]=[W](=[O])([OH])[OH]`: the GI50 in experiment [1], in experiment [2], in experiment [3], in experiment [4], in experiment [5] and in experiment [6] was more than 100 µM throughout. Further, the GI50 in experiment [7] is more than 100 µM. The TGI in experiment [1], in experiment [2], in experiment [3], in experiment [4], in experiment [5] and in experiment [6] was more than 100 µM in each case. Also, the TGI in experiment [7] was more than 100 µM.

On to `N=C(N)c1ccc(-c2ccc(-c3ccc(Cl)c(Cl)c3)o2)nc1`, for which the GI50 in experiment [1] is 2.08 µM; in experiment [2], 1.86 µM; in experiment [4], 1.74 µM; in experiment [5], 1.77 µM. The TGI was 4.73 µM in experiment [1], 4.36 µM in experiment [2], 3.22 µM in experiment [4] and 3.53 µM in experiment [5].

Turning to `CNc1ccc(C(=O)CC(O)CCC(C)C2OC(=O)CC(O)CC(=O)CC(O)CC(O)CC(O)CC(O)CC3(O)CC(O)C(C(=O)NCCc4ccccn4)C(CC(OC4OC(C)C(O)C(N)C4O)/C=C/C=C/C=C/C=C\C=C/C=C/C=C/C2C)O3)cc1` (stereo not drawn), the GI50 was 0.141 µM in experiment [1]; 4.21 µM in experiment [2]; 1.25 µM in experiment [3]; 0.841 µM in experiment [4]; 4.75 µM in experiment [5]; 0.165 µM in experiment [6]. Besides, the TGI in experiment [1] is 0.439 µM; in experiment [2], more than 50 µM; in experiment [3] it was 10.4 µM; in experiment [4], 1.53 µM; in experiment [5], more than 50 µM.

Take `N#C/C(=C\c1ccc([N+](=O)[O-])s1)c1nc2cc(Br)ccc2s1`: the GI50 in experiment [1] was 0.468 µM; in experiment [2], 0.206 µM; in experiment [3], 0.305 µM; in experiment [5] it was 0.0707 µM; in experiment [6], 0.142 µM; in experiment [7], 0.276 µM. Moreover, the GI50 in experiment [8] is 0.314 µM. The TGI is more than 100 µM in experiment [1]; 0.539 µM in experiment [2]; 0.264 µM in experiment [5]; 0.323 µM in experiment [6]; 0.827 µM in experiment [7]; 1.68 µM in experiment [8].
